{"source": "paper PMC12655637", "about": "“Design, Synthesis, and Mechanistic Study of Novel Ciprofloxacin/Thiazole Chalcone Hybrids as Potential Anticancer Agents” (Pharmaceuticals, 2025)", "assay_in_all_cases": "NCI-60 screening, one-dose (10 µM) and five-dose, SRB", "key": {"NCI-H322M": {"test_system": "NCI-H322M", "format": "cell-based, human", "conditions": "five-dose"}, "U251": {"test_system": "U251", "format": "cell-based, human"}, "DU-145": {"test_system": "DU-145", "format": "cell-based, human"}, "SF-268": {"test_system": "SF-268", "format": "cell-based, human"}, "LOX IMVI": {"test_system": "LOX IMVI", "format": "cell-based, human"}, "SR": {"test_system": "SR", "format": "cell-based, human", "conditions": "five-dose"}, "SK-MEL-28": {"test_system": "SK-MEL-28", "format": "cell-based, human"}, "IGROV1": {"test_system": "IGROV1", "format": "cell-based, human"}, "786−0": {"test_system": "786−0", "format": "cell-based, human"}, "NCI-H23": {"test_system": "NCI-H23", "format": "cell-based, human"}, "NCI-H460": {"test_system": "NCI-H460", "format": "cell-based, human"}, "CAKI-1": {"test_system": "CAKI-1", "format": "cell-based"}, "UACC-62": {"test_system": "UACC-62", "format": "cell-based"}, "EKVX": {"test_system": "EKVX", "format": "cell-based, human", "conditions": "Homo sapiens, 10 μM, Non-Small-Cell Lung Cancer, read-out: Growth percentage"}, "HOP-92": {"test_system": "HOP-92", "format": "cell-based, human"}, "[1]": {"conditions": "Homo sapiens, U-251, five-dose, U251"}, "[2]": {"conditions": "Homo sapiens, five-dose, DU-145"}, "[3]": {"conditions": "Homo sapiens, five-dose, SF-268"}, "[4]": {"conditions": "Homo sapiens, five-dose, SK-MEL-28"}, "[5]": {"conditions": "Homo sapiens, IGROV-1, five-dose, IGROV1"}, "[6]": {"conditions": "Homo sapiens, five-dose, NCI-H23"}, "[7]": {"conditions": "Homo sapiens, five-dose, NCI-H460"}, "[8]": {"conditions": "Homo sapiens, five-dose, CAKI-1"}, "[9]": {"conditions": "Homo sapiens, five-dose, UACC-62"}, "[10]": {"conditions": "Homo sapiens, five-dose, HOP-92"}}}
{"smiles": "Cc1nc(SCC(=O)N2CCN(c3cc4c(cc3F)c(=O)c(C(=O)O)cn4C3CC3)CC2)sc1C(=O)/C=C/c1cccc(Cl)c1", "note": "[Compound 4b, (E)-7-(4-(2-((5-(3-(3-Chlorophenyl)acryloyl)-4-methylthiazol-2-yl)thio)acetyl)piperazin-1-yl)-1-cyclopropyl-6-fluoro-4-oxo-1,4-dihydroquinoline-3-carboxylic Acid]", "values": [{"measurement": "IC50", "setting": "NCI-H322M; Homo sapiens", "result": "> 100", "unit": "µM"}, {"measurement": "LC50", "setting": "NCI-H322M; Homo sapiens", "result": "> 100", "unit": "µM"}, {"measurement": "TGI", "setting": "NCI-H322M", "result": 100.0, "unit": "µM"}, {"measurement": "activity at 10 µM", "setting": "U251; Homo sapiens, U-251, 10 μM, U251, CNS Cancer, read-out: Growth percentage", "result": 41.9, "unit": "%"}, {"measurement": "GI50", "setting": "U251; [1]", "result": 34.7, "unit": "µM"}, {"measurement": "IC50", "setting": "U251; [1]", "result": "> 100", "unit": "µM"}, {"measurement": "CC50", "setting": "U251; Homo sapiens, U-251, five-dose, U251, read-out: LC50 (the source's name)", "result": "> 100", "unit": "µM"}, {"measurement": "TGI", "setting": "U251; five-dose, U251", "result": 100.0, "unit": "µM"}, {"measurement": "activity at 10 µM", "setting": "DU-145; Homo sapiens, 10 μM, DU-145, Prostate Cancer, read-out: Growth percentage", "result": 94.6, "unit": "%"}, {"measurement": "GI50", "setting": "DU-145; [2]", "result": "> 100", "unit": "µM"}, {"measurement": "IC50", "setting": "DU-145; [2]", "result": "> 100", "unit": "µM"}, {"measurement": "CC50", "setting": "DU-145; Homo sapiens, five-dose, DU-145, read-out: LC50 (the source's name)", "result": "> 100", "unit": "µM"}, {"measurement": "TGI", "setting": "DU-145; five-dose, DU-145", "result": 100.0, "unit": "µM"}, {"measurement": "activity at 10 µM", "setting": "SF-268; Homo sapiens, 10 μM, SF-268, CNS Cancer, read-out: Growth percentage", "result": 76.1, "unit": "%"}, {"measurement": "GI50", "setting": "SF-268; [3]", "result": 22.4, "unit": "µM"}, {"measurement": "IC50", "setting": "SF-268; [3]", "result": 53.7, "unit": "µM"}, {"measurement": "CC50", "setting": "SF-268; Homo sapiens, five-dose, SF-268, read-out: LC50 (the source's name)", "result": "> 100", "unit": "µM"}, {"measurement": "TGI", "setting": "SF-268; five-dose, SF-268", "result": 93.3, "unit": "µM"}, {"measurement": "activity at 10 µM", "setting": "LOX IMVI; Homo sapiens, 10 μM, Melanoma, read-out: Growth percentage", "result": 36.9, "unit": "%"}, {"measurement": "GI50", "setting": "LOX IMVI; Homo sapiens, five-dose", "result": 2.4, "unit": "µM"}, {"measurement": "IC50", "setting": "LOX IMVI; Homo sapiens, five-dose", "result": 3, "unit": "µM"}, {"measurement": "CC50", "setting": "LOX IMVI; Homo sapiens, five-dose, read-out: LC50 (the source's name)", "result": "> 100", "unit": "µM"}, {"measurement": "TGI", "setting": "LOX IMVI; five-dose", "result": 100.0, "unit": "µM"}, {"measurement": "GI50", "setting": "SR; Homo sapiens", "result": 1.8, "unit": "µM"}, {"measurement": "IC50", "setting": "SR; Homo sapiens", "result": 3.2, "unit": "µM"}, {"measurement": "CC50", "setting": "SR; Homo sapiens, read-out: LC50 (the source's name)", "result": 9.1, "unit": "µM"}, {"measurement": "TGI", "setting": "SR", "result": 4.1, "unit": "µM"}, {"measurement": "activity at 10 µM", "setting": "SK-MEL-28; Homo sapiens, 10 μM, SK-MEL-28, Melanoma, read-out: Growth percentage", "result": 84.1, "unit": "%"}, {"measurement": "GI50", "setting": "SK-MEL-28; [4]", "result": 26.9, "unit": "µM"}, {"measurement": "IC50", "setting": "SK-MEL-28; [4]", "result": 87.1, "unit": "µM"}, {"measurement": "CC50", "setting": "SK-MEL-28; Homo sapiens, five-dose, SK-MEL-28, read-out: LC50 (the source's name)", "result": "> 100", "unit": "µM"}, {"measurement": "TGI", "setting": "SK-MEL-28; five-dose, SK-MEL-28", "result": 100.0, "unit": "µM"}, {"measurement": "Growth percentage", "setting": "IGROV1; 10 μM, IGROV1, Ovarian Cancer", "result": 73.9, "unit": "%"}, {"measurement": "GI50", "setting": "IGROV1; [5]", "result": "> 100", "unit": "µM"}, {"measurement": "IC50", "setting": "IGROV1; [5]", "result": "> 100", "unit": "µM"}, {"measurement": "CC50", "setting": "IGROV1; Homo sapiens, IGROV-1, five-dose, IGROV1, read-out: LC50 (the source's name)", "result": "> 100", "unit": "µM"}, {"measurement": "TGI", "setting": "IGROV1; five-dose, IGROV1", "result": 100.0, "unit": "µM"}, {"measurement": "activity at 10 µM", "setting": "786−0; Homo sapiens, 10 μM, 786−0, Renal Cancer, read-out: Growth percentage", "result": 74.3, "unit": "%"}, {"measurement": "GI50", "setting": "786−0; Homo sapiens, five-dose, 786−0", "result": "> 100", "unit": "µM"}, {"measurement": "IC50", "setting": "786−0; Homo sapiens, five-dose, 786−0", "result": "> 100", "unit": "µM"}, {"measurement": "CC50", "setting": "786−0; Homo sapiens, five-dose, 786−0, read-out: LC50 (the source's name)", "result": "> 100", "unit": "µM"}, {"measurement": "TGI", "setting": "786−0; five-dose, 786−0", "result": 100.0, "unit": "µM"}, {"measurement": "activity at 10 µM", "setting": "NCI-H23; Homo sapiens, 10 μM, NCI-H23, Non-Small-Cell Lung Cancer, read-out: Growth percentage", "result": 54, "unit": "%"}, {"measurement": "GI50", "setting": "NCI-H23; [6]", "result": "> 100", "unit": "µM"}, {"measurement": "IC50", "setting": "NCI-H23; [6]", "result": "> 100", "unit": "µM"}, {"measurement": "LC50 (50% lethal concentration)", "setting": "NCI-H23; [6]", "result": "> 100", "unit": "µM"}, {"measurement": "TGI", "setting": "NCI-H23; five-dose, NCI-H23", "result": 100.0, "unit": "µM"}, {"measurement": "activity at 10 µM", "setting": "NCI-H460; Homo sapiens, NCI-H460, 10 μM, NCI-H460, Non-Small-Cell Lung Cancer, read-out: Growth percentage", "result": 76.7, "unit": "%"}, {"measurement": "GI50", "setting": "NCI-H460; [7]", "result": 58.9, "unit": "µM"}, {"measurement": "IC50", "setting": "NCI-H460; [7]", "result": 70.8, "unit": "µM"}, {"measurement": "CC50", "setting": "NCI-H460; Homo sapiens, five-dose, NCI-H460, read-out: LC50 (the source's name)", "result": "> 100", "unit": "µM"}, {"measurement": "TGI", "setting": "NCI-H460; five-dose, NCI-H460", "result": 100.0, "unit": "µM"}, {"measurement": "activity at 10 µM", "setting": "CAKI-1; Homo sapiens, 10 μM, CAKI-1, Renal Cancer, read-out: Growth percentage", "result": 102, "unit": "%"}, {"measurement": "GI50", "setting": "CAKI-1; [8]", "result": 87.1, "unit": "µM"}, {"measurement": "IC50", "setting": "CAKI-1; [8]", "result": "> 100", "unit": "µM"}, {"measurement": "CC50", "setting": "CAKI-1; Homo sapiens, five-dose, CAKI-1, read-out: LC50 (the source's name)", "result": "> 100", "unit": "µM"}, {"measurement": "TGI", "setting": "CAKI-1; five-dose, CAKI-1", "result": 100.0, "unit": "µM"}, {"measurement": "activity at 10 µM", "setting": "UACC-62; Homo sapiens, 10 μM, UACC-62, Melanoma, read-out: Growth percentage", "result": 76.3, "unit": "%"}, {"measurement": "GI50", "setting": "UACC-62; [9]", "result": 20.9, "unit": "µM"}, {"measurement": "IC50", "setting": "UACC-62; [9]", "result": "> 100", "unit": "µM"}, {"measurement": "CC50", "setting": "UACC-62; Homo sapiens, five-dose, UACC-62, read-out: LC50 (the source's name)", "result": "> 100", "unit": "µM"}, {"measurement": "TGI", "setting": "UACC-62; five-dose, UACC-62", "result": 100.0, "unit": "µM"}, {"measurement": "activity at 10 µM", "setting": "EKVX", "result": 83.9, "unit": "%"}, {"measurement": "activity at 10 µM", "setting": "HOP-92; Homo sapiens, 10 μM, HOP-92, Non-Small-Cell Lung Cancer, read-out: Growth percentage", "result": 101, "unit": "%"}, {"measurement": "GI50", "setting": "HOP-92; [10]", "result": 44.7, "unit": "µM"}, {"measurement": "IC50", "setting": "HOP-92; [10]", "result": "> 100", "unit": "µM"}, {"measurement": "LC50 (concentration killing 50% of cells)", "setting": "HOP-92; [10]", "result": "> 100", "unit": "µM"}, {"measurement": "TGI", "setting": "HOP-92; five-dose, HOP-92", "result": 100.0, "unit": "µM"}]}
